Assay results taken from paper PMC6368403, “Identification of a bilirubin receptor that may mediate a component of cholestatic itch” (eLife, 2019).

Tests used:
[1] = tested on: mice; assay: Cheek injection model: scratching bouts and wiping; format: in vivo, mouse
Procedure: All applicable behavioral tests were performed and analysed with the experimenter blind to genotype. […] There were no significant differences in itch between male and female mice. […] On the day before the experiment, animals were placed in the test chamber for 30 min before being subjected to a series of three mock injections with 5 min break periods in between. On the day of the experiment, animals were first allowed to acclimatize to the test chamber for 10 min before injection. […] A bout of scratching was defined as a continuous scratching movement with either hindpaw directed at the area of the injection site. In the cheek injection model, a wipe was defined as a single forepaw stroking the site of the injection. Use of both forepaws on the face or cheek was considered as grooming behavior. […] For H1R block, 30 mg/kg of cetirizine HCl (pH 7.4) was given intraperitoneally thirty minutes prior to injection of bilirubin. Licking behavior was quantified in seconds and identified as the licking of the toes or footpad of the hind paw site of injection that was neither preceded nor followed by licking of any other portion of the body.

[2] = tested on: murine peritoneal mast cells; assay: Ca2+ imaging of murine peritoneal mast cells; format: cell-based, mouse; conditions: 100 µM bilirubin
Procedure: (§1) All cultured cells were maintained in DMEM supplemented with 10% FBS and 1% Penicillin/Streptomycin at 37°C, 5% CO2. All data included were generated from cells tested for mycoplasma and found to be negative. Cells were imaged in calcium imaging buffer (CIB; 10 mM HEPES, 1.2 mM NaHCO3, 130 mM NaCl, 3 mM KCl, 2.5 mM CaCl2, 0.6 mM MgCl2, 20 mM glucose, and 20 mM sucrose at pH 7.4 and 290–300 mOsm). To monitor changes in intracellular [Ca^2+] ([Ca^2+]i), cells were loaded with either Fura 2-AM (HEK293 cells) or Fluo 4-AM (DRG neurons and mast cells) for 30 min in the dark at 37°C in CIB just prior to imaging. With Fura 2-AM, emission at 510 nm was monitored from excitation at both 340 nm and 380 nm. With Fluo 4-AM, emission at 520 nm was monitored from excitation at 488 nm. Cells were identified as responding if the intracellular [Ca^2+] rose by either 50% compared to baseline or 50% compared to the [Ca^2+]i change assayed during addition of 50 mM KCl (neurons only). Damaged, detached, high-baseline, and motion-activated cells were excluded from analysis.
Mast cells were purified as described and plated onto glass coverslips coated with […] fibronectin and allowed to recover for 2 hr at 37°C. Cells were then loaded with Fluo-4 AM.
Adult male mice 8–12 weeks of age were sacrificed through CO2 inhalation. […]

[3] = target: T1, MRGPRC11 (Mus musculus, UniProt Q8CIP3); assay: Ca2+ imaging and concentration-Ca2+ response in HEK293 cells expressing MRGPRC11; format: cell-based; conditions: three replicates, Fig 2-N
T1 construct: expressed in transfected cells
T1 sequence (Q8CIP3 1-322): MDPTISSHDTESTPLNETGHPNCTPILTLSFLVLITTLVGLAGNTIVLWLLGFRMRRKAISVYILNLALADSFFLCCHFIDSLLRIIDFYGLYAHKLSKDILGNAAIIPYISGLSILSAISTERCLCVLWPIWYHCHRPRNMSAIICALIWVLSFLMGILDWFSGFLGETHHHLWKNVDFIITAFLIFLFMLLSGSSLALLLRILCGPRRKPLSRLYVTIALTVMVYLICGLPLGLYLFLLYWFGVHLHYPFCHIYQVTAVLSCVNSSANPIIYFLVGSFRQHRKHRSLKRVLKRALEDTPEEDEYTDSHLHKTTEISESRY
Procedure: as §1
In initial screens, HEK293 cells stably expressing the murine G-protein alpha-subunit Gα15, a unique Gα protein that non-selectively couples a large variety of GPCRs to phospholipase C ^30, were plated on poly-D-lysine-coated coverslips and transiently transfected with constructs encoding the MRGRPR of interest. 12–24 hr later, cells were loaded with the Fura 2-AM. Unless otherwise specified, compounds were perfused into the imaging chamber for approximately thirty seconds after a baseline period was established. Response was then monitored at 5 s intervals for an additional 60 s.
HEK293 cells stably expressing either MRGPRA1, MRGPRX4, and MRGRPC11 were seeded in poly-D-lysine-coated 96-well plates at 10,000 cells/well. Cells were loaded with Fura 2–AM, washed twice, and maintained in CIB. Haem metabolites were freshly dissolved in DMSO in dim light and then diluted into a buffer comprised of 20 mM Tris and 150 mM NaCl at pH 8.8. Potential changes in pH were evaluated prior to each experiment. EC50 values were determined from dose-responses performed in triplicate, repeated 2–4 times. To determine potential antagonism by QWF against bilirubin, cells were treated with varying doses of QWF for 1 min in CIB prior to application of agonist.
HEK293 stable cell lines expressing GFP-tagged MRGPRA3, MRGPRC11, MRGPRD, MRGPRX1, and MRGPRX2 were generated in previously described reports ([Liu et al., 2009]; [Liu et al., 2012]; [McNeil et al., 2015]). Briefly, plasmids containing the receptor of interest were transfected into HEK cells using Lipofectamine 3000. After 3 days, cells were then selected using 0.5 mg/mL G418. After 3 weeks, monoclonal colonies were established and each the highest expressing clones were identified. For this study, Mrgpra1 and MRGPRX4 were inserted into pEGFP-N1 and transfected into HEK293 cells. MRGPR-positive cells were selected using 0.5 mg/mL G418 for three weeks, after which GFP-positive cells were sorted by FACS and monoclonally expanded. Two lines expressing similar levels of MRGPRA1 and MRGPRX4, as measured by GFP fluorescence, were selected for study.

C=CC1=C(C)/C(=C/c2[nH]c(Cc3[nH]c(/C=C4\NC(=O)C(C)=C4C=C)c(C)c3CCC(=O)O)c(CCC(=O)O)c2C)NC1=O [bilirubin, bilirubin IXα]
Wiping ([1]; 6 µg bilirubin into the cheek, 10 min): neither wiping | Scratching after cheek injection ([1]; cheek, 10 µl, 30 min): prompted dose-dependent scratching | Calcium response of peritoneal mast cells [2]: did not elicit a calcium response | Ca2+ response (concentration-Ca2+ response curve), replicate values ([3]; [Ligand] 3.90625e-6 M): 0 | Ca2+ response (concentration-Ca2+ response curve), replicate values ([3]; [Ligand] 7.8125e-6 M): 0 | Ca2+ response (concentration-Ca2+ response curve), replicate values ([3]; [Ligand] 1.5625e-5 M): 0 | Ca2+ response (concentration-Ca2+ response curve), replicate values ([3]; [Ligand] 3.125e-5 M): 0 | Ca2+ response (concentration-Ca2+ response curve), replicate values ([3]; [Ligand] 6.25e-5 M): 0 | Ca2+ response (concentration-Ca2+ response curve), replicate values ([3]; [Ligand] 0.000125 M): 0 | Ca2+ response (concentration-Ca2+ response curve), replicate values ([3]; [Ligand] 0.00025 M): 0 | Ca2+ response (concentration-Ca2+ response curve), replicate values ([3]; [Ligand] 0.0005 M): 0
